Columns and labels:
Cig1 = biological target: T1, Cig1 (Cryptococcus neoformans, UniProt J9VUB8); conditions: PBS, 25 °C; hemin from DMSO stock
T1 construct: gene CNAG_01653

BSA = biological target: T2, BSA (Bos taurus, UniProt P02769); assay: UV-vis absorption spectra (Soret shift of complex); type: binding; conditions: PBS, 37 °C, 15 min; hemin in excess over BSA
T2 construct: gene ALB
T2 sequence (P02769 25-607): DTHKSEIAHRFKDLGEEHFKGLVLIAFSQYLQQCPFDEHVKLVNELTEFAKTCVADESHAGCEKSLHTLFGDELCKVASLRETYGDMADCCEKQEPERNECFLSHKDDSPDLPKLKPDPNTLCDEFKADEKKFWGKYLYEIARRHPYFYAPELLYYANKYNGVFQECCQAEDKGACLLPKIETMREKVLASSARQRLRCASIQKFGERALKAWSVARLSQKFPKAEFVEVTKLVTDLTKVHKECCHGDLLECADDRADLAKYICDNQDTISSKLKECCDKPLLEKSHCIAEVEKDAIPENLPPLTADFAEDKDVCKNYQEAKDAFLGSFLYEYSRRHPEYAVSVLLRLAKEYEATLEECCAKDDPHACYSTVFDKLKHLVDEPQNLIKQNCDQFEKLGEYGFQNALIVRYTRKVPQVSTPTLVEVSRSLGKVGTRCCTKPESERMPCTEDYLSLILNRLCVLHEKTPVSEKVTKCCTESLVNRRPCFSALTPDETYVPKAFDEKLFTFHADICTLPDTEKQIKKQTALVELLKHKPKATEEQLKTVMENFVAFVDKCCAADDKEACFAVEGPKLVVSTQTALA

T1 sequence (J9VUB8 entry or part of it): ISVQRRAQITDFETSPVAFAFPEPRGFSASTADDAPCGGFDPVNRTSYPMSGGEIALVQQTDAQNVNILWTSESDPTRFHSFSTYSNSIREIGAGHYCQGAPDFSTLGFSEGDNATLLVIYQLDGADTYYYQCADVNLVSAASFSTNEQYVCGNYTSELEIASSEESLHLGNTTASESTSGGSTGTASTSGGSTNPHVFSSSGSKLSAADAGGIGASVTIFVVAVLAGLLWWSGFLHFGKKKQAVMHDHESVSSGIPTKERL

C=CC1=C(C)C2=Cc3c(C=C)c(C)c4[n]3[Fe]([Cl])[n]3c(c(C)c(CCC(=O)O)c3=CC3=NC(=C4)C(C)=C3CCC(=O)O)=CC1=N2 [hemin]
Kd (Cig1): 9.81×10^‒7 mol/l | UV-vis absorption spectra (Soret shift of complex) (BSA): Hemin@BSA exhibited a red shift in its absorption peak

From article PMC12329525, “All-stage targeted therapy for invasive cryptococcosis through interaction between the secretory protein Cig1 and hemin” (Asian Journal of Pharmaceutical Sciences, 2025)
